Nine compounds from patent US11578068B2, “Oxadiazole derivatives as Rho-Kinase Inhibitors” (Chiesi Farmaceutici S.p.A., priority 2017, dated 2023) can be followed below.

Where only a bound is given, the exact number is not on record here.

For one experiment, the target named is ROCK1 (Homo sapiens, UniProt Q13464). Description: In vitro Rho kinase inhibitory activity assay (ADP-Glo), Rho kinase 1. The following applies: Ki by Cheng-Prusoff from IC50; 10 μM ATP, 25° C., Myelin Basic Protein substrate; range of activity. It is filed as biochemical. How it is done:
(§1) The effectiveness of compounds of the invention to inhibit Rho kinase activity can be determined in a 10 μl assay containing 40 mM Tris pH7.5, 20 mM MgCl2 0.1 mg/ml BSA, 50 μM DTT and 2.5 μM peptide substrate (Myelin Basic Protein) using an ADP-Glo kit (Promega). Compounds were dissolved in DMSO such that the final concentration of DMSO was 1% in the assay. All reactions/incubations are performed at 25° C. Compound (2 ul) and either Rho kinase 1 or 2 (4 μl) were mixed and incubated for 30 mins. Reactions were initiated by addition of ATP (4 μl) such that the final concentration of ATP in the assay was 10 μM. After a 1 hour incubation 10 μl of ADP-Glo Reagent was added and after a further 45 minute incubation 20 ul of Kinase Detection Buffer was added and the mixture incubated for a further 30 minutes. The luminescent signal was measured on a luminometer. […] Compounds were tested in dose-response format and the inhibition of kinase activity was calculated at each concentration of compound. To determine the IC50 (concentration of compound required to inhibit 50% of the enzyme activity) data were fit to a plot of % inhibition vs Log 10 compound concentration using a sigmoidal fit with a variable slope and fixing the maximum to 100% and the minimum to 0%. To determine the Ki values the Cheng-Prusoff equation was utilized (Ki=IC50/(1+[S]/Km)
For orientation: In ADP-Glo the light output rises with the ADP produced.

The target in the next experiment is ROCK2 (Homo sapiens, UniProt O75116). Briefly: In vitro Rho kinase inhibitory activity assay (ADP-Glo), Rho kinase 2. It is filed as biochemical. The conditions noted are these: Ki by Cheng-Prusoff from IC50; 10 μM ATP, 25° C., Myelin Basic Protein substrate; range of activity. As to the method:
as §1

Sequence of ROCK2 (O75116 whole entry): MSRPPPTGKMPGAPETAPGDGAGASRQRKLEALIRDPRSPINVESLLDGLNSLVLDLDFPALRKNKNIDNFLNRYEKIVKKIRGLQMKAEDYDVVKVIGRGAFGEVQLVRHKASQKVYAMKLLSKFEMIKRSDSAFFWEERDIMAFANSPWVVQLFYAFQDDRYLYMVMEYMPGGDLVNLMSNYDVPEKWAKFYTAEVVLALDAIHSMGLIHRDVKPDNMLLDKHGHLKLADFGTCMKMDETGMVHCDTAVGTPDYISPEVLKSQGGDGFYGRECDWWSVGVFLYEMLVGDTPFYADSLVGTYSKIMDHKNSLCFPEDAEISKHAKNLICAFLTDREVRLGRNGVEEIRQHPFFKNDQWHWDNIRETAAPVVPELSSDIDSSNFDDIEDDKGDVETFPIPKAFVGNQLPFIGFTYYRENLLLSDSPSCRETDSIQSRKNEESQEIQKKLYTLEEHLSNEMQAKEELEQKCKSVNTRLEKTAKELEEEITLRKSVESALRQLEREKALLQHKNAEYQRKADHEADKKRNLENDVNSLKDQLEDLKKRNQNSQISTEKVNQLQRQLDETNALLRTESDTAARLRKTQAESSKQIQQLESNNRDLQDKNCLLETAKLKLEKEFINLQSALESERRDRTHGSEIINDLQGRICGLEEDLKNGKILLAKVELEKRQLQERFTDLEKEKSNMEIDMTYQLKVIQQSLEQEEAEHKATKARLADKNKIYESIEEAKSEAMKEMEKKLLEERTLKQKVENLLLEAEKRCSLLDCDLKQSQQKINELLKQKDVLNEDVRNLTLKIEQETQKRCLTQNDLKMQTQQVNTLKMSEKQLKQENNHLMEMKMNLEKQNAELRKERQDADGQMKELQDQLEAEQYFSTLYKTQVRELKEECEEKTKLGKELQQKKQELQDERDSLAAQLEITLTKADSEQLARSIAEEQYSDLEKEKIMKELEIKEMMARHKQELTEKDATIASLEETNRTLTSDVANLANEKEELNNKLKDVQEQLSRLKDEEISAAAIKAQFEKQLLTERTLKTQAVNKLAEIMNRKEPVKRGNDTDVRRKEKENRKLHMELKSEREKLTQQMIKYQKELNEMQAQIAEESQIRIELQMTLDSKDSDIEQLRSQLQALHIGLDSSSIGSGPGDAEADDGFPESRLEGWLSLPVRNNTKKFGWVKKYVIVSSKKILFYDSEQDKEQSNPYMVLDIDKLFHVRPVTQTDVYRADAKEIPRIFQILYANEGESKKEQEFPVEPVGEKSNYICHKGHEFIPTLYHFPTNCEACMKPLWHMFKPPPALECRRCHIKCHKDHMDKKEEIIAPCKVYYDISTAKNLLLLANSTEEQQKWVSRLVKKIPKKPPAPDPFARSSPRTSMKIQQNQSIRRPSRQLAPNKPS
Sequence of ROCK1 (Q13464 whole entry): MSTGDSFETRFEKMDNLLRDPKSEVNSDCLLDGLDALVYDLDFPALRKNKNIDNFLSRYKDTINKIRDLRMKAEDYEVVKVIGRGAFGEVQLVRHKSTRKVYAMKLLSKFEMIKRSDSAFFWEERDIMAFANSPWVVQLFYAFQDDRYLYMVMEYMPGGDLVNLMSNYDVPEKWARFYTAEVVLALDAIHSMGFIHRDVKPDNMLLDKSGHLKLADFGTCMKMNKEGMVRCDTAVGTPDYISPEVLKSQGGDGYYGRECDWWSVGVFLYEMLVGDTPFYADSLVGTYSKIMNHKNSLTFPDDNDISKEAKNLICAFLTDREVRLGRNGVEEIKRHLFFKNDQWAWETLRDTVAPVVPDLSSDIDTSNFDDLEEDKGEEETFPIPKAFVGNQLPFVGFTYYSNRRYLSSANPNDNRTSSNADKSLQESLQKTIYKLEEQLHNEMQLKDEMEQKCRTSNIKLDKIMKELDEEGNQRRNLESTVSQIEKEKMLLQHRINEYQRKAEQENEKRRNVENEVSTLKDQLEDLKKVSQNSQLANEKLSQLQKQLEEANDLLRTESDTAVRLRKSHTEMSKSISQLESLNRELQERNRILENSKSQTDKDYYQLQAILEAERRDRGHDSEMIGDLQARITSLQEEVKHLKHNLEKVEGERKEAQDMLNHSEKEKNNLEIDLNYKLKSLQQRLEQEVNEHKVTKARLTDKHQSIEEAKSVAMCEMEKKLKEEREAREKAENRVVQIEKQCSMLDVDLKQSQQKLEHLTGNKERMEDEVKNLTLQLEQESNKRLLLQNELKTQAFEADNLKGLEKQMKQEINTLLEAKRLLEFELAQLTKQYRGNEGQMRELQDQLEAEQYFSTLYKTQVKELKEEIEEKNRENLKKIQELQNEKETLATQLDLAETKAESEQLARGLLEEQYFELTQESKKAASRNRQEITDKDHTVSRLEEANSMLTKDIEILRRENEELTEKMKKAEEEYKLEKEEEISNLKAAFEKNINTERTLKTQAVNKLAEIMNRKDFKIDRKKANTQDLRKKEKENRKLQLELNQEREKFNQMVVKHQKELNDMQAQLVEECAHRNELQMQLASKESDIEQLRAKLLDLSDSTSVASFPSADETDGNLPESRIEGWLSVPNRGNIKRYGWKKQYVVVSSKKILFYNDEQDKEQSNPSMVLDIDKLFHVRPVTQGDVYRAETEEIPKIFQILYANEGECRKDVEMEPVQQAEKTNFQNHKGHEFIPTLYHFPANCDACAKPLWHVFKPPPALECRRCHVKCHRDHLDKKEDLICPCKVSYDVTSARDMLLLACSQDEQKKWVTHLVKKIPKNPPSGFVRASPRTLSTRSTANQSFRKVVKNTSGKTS

Take `Cc1c[nH]c2nccc(Oc3ccc(C[C@H](N)c4nc(CCCN(C)C)no4)cc3F)c12` [Example 6, (S)-3-(5-(1-amino-2-(3-fluoro-4-((3-methyl-1H-pyrrolo[2,3-b]pyridin-4-yl)oxy)phenyl)ethyl)-1,2,4-oxadiazol-3-yl)-N,N-dimethylpropan-1-amine]: the Ki at ROCK1 and on ROCK2 was 5 to 50 nM in each case.
Consider `Cc1c[nH]c2nccc(Oc3ccc(C[C@H](N)c4nc(-c5ccccc5)no4)cc3F)c12` [Example 1, (S)-2-(3-fluoro-4((3-methyl-1H-pyrrolo[2,3-b]pyridin-4-yl)oxy)phenyl)-1-(3-phenyl-1,2,4-oxadiazol-5-yl)ethanamine], for which the Ki on ROCK1 and at ROCK2 was 5 to 50 nM each time.
Take `Cc1c[nH]c2nccc(Oc3ccc(C[C@H](N)c4nc(CCc5ccccc5)no4)cc3F)c12` [Example 4, (S)-2-(3-fluoro-4-((3-methyl-1H-pyrrolo[2,3-b]pyridin-4-yl)oxy)phenyl)-1-(3-phenethyl-1,2,4-oxadiazol-5-yl)ethanamine]: the Ki at ROCK1 and on ROCK2 was < 5 nM each time.
As for `Cc1c[nH]c2nccc(Oc3ccc(C[C@H](N)c4nnc(Cc5ccccc5)o4)cc3F)c12` [Example 9, (S)-1-(5-benzyl-1,3,4-oxadiazol-2-yl)-2-(3-fluoro-4-((3-methyl-1H-pyrrolo [2,3-b]pyridin-4-yl)oxy)phenyl)ethanamine], the Ki at ROCK1 and at ROCK2 was < 5 nM in each case.
`COCCc1noc([C@@H](N)Cc2ccc(Oc3ccnc4[nH]cc(C)c34)c(F)c2)n1` [Example 2, (S)-2-(3-fluoro-4-((3-methyl-1H-pyrrolo[2,3-b]pyridin-4-yl)oxy)phenyl)-1-(3-(2-methoxyethyl)-1,2,4-oxadiazol-5-yl)ethanamine]: the inhibition constant Ki at ROCK1 and at ROCK2 was 5 to 50 nM each time.
`Cc1noc([C@@H](N)Cc2ccc(Oc3ccnc4[nH]cc(C)c34)c(F)c2)n1` [Example 3, (S)-2-(3-fluoro-4-((3-methyl-1H-pyrrolo[2,3-b]pyridin-4-yl)oxy)phenyl)-1-(3-methyl-1,2,4-oxadiazol-5-yl)ethanamine]: the Ki on ROCK1 and at ROCK2 was 5 to 50 nM throughout.
In the case of `Cc1c[nH]c2nccc(Oc3ccc(C[C@H](N)c4nc(-c5cccnc5)no4)cc3F)c12` [Example 5, (S)-2-(3-fluoro-4-((3-methyl-1H-pyrrolo[2,3-b]pyridin-4-yl)oxy)phenyl)-1-(3-(pyridin-3-yl)-1,2,4-oxadiazol-5-yl)ethanamine], the Ki at ROCK1 and at ROCK2 was 5 to 50 nM throughout.
In the case of `N[C@@H](Cc1ccc(Oc2ccnc3[nH]ccc23)cc1)c1nc(-c2ccccc2)no1` [Example 7, (S)-2-(4-((1H-pyrrolo[2,3-b]pyridin-4-yl)oxy)phenyl)-1-(3-phenyl-1,2,4-oxadiazol-5-yl)ethanamine], the Ki at ROCK1 and on ROCK2 was > 50 nM in each case.
With `Cc1c[nH]c2nccc(Oc3ccc(CC(CN)c4nc(CCc5ccccc5)no4)cc3F)c12` (stereo not drawn) [Example 8, 3-(3-fluoro-4-((3-methyl-1H-pyrrolo[2,3-b]pyridin-4-yl)oxy)phenyl)-2-(3-phenethyl-1,2,4-oxadiazol-5-yl)propan-1-amine], the Ki on ROCK1 and on ROCK2 was < 5 nM throughout.

Broadly, the Ki is the dissociation constant of the complex between target and ligand, obtained from inhibition or displacement. High values mean weaker binding, low ones tighter binding.
